# Reference: ChEMBL document CHEMBL1201862, “PubChem BioAssay data set” (2004)
# The source made the active and inactive calls.
# How the values were obtained:
# Bcl-2-like protein 10 = target: T1, Bcl-2-like protein 10 (Homo sapiens, UniProt Q9HD36); experiment: displacers of TR3 peptide from Bcl-B, primary screen, selectivity assay for Bfl-1 inhibitor project, biochemical, fluorescence polarization, FITC-TR3 peptide (AID 748);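 also: fluorescence polarization from a fluorescein-labelled TR3 peptide binding purified Bcl-B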
# T1 sequence (Q9HD36 whole entry): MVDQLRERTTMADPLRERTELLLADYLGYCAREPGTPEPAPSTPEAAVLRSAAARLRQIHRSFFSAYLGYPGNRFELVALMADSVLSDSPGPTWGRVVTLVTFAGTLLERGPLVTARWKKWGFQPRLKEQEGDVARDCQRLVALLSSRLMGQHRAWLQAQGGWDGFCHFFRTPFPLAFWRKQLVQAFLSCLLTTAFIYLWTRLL
# [1] = target: Acyl-homoserine lactone acylase PvdQ (Pseudomonas aeruginosa (strain LESB58), UniProt Q9I194); experiment: P. aeruginosa PvdQ acylase inhibitors, dose response, biochemical, fluorescence, plate reader and imaging, cherry-picks (AID 493231)
# [2] = A cytotoxicity screen of small molecule inhibitors of the PhoP region in Salmonella typhi identified in the primary screen. [Related pubchem assays: 1850, 1864, 1985 ]; type: functional
# [3] = target: T2, Short transient receptor potential channel 4 (Mus musculus, UniProt Q9QUQ5); experiment: mouse TRPC4 channel inhibitors, dose response, cell-based, HEK293 TRPC4/mu-opioid, Fluo-4 calcium (AID 434942); type: functional;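 also: potency of inhibitors blocking the TRPC4 calcium response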
# T2 sequence (Q9QUQ5 whole entry): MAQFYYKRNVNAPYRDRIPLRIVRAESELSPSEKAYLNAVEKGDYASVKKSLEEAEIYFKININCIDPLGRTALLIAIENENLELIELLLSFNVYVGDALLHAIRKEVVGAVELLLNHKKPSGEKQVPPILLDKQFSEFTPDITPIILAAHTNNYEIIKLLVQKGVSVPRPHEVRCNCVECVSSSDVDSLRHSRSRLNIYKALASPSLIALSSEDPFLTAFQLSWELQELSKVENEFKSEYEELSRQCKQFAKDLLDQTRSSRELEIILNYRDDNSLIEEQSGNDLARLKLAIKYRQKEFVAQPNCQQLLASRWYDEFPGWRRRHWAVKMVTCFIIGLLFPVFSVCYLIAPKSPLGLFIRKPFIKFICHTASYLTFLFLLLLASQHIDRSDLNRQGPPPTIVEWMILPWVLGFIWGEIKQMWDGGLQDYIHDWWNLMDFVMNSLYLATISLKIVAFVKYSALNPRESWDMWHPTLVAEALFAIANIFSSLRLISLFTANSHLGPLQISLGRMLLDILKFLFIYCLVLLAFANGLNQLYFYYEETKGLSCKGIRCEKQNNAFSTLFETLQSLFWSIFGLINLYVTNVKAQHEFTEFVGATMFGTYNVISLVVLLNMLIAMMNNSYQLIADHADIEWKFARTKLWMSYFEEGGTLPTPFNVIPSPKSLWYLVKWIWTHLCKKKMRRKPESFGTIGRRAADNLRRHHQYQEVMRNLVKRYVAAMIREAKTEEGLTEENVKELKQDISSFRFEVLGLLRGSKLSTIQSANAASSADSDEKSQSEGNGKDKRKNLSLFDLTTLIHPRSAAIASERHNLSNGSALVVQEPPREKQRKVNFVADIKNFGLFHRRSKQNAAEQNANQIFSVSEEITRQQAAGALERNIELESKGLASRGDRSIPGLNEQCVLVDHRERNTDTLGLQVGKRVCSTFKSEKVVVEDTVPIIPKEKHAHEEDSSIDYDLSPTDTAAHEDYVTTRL
# Cytochrome P450 2C9 = Cytochrome P450 2C9 (Homo sapiens, UniProt P11712); conditions: Potency
# Cytochrome P450 3A4 = Cytochrome P450 3A4 (Homo sapiens, UniProt P08684); conditions: Potency;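 also: confirmatory qHTS run detecting inhibitors and substrates of CYP3A4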
# HEK293 = experiment: cells; conditions: Homo sapiens;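 also: cells exposed to compound for 14 hours overnight before viability readout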
# [4] = target: T3, Nucleotide-binding oligomerization domain-containing protein 1 (Homo sapiens, UniProt Q9Y239); experiment: NOD1 signaling inhibitors, SAR follow-up, revised (AID 2333); type: functional
# T3 sequence (Q9Y239 whole entry): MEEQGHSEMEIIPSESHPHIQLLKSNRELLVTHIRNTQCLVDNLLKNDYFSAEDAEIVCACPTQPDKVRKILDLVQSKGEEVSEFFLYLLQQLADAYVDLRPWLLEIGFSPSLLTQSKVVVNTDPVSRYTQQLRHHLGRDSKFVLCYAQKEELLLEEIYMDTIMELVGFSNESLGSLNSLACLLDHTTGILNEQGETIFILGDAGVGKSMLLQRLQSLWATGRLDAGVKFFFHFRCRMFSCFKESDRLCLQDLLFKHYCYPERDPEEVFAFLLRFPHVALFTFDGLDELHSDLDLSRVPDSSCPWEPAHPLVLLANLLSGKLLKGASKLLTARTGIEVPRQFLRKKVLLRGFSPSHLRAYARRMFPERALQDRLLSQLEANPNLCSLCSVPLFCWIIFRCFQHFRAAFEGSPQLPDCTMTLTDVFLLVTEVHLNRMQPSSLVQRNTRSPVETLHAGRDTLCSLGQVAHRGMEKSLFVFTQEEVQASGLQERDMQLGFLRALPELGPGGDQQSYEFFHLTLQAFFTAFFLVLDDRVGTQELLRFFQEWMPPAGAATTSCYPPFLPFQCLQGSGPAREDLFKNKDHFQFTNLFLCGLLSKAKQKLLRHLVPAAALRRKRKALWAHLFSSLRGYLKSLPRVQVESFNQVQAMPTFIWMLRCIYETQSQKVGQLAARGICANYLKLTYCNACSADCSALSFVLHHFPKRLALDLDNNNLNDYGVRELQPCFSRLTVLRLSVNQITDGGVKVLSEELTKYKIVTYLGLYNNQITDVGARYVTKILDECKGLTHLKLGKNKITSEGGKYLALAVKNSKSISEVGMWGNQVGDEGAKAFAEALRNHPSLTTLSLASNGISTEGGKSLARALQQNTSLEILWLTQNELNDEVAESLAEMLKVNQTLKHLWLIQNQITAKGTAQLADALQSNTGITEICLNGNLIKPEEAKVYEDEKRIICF
# Tumor necrosis factor = Tumor necrosis factor (Homo sapiens, UniProt P01375); experiment: TNFa-triggered NF-kB activation inhibitors, SAR follow-up, cell-based, revised (AID 2337); type: functional
# [5] = target: Nucleotide-binding oligomerization domain-containing protein 2 (Homo sapiens, UniProt Q9HC29); experiment: PubChem AID 2334; type: functional
# [6] = target: Eukaryotic translation initiation factor 4E (Mus musculus, UniProt P63073); experiment: eIF4E–eIF4G protein interaction inhibitors, dose response, biochemical, TR-FRET (AID 855); type: functional;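 also: potency for disrupting eIF4E binding to eIF4GI seen as loss of FRET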
# [7] = Luminescence Cell-Based Dose Confirmation HTS to Identify Inhibitors of Platelet Dense Granule Release. [Related pubchem assays: 1663 (Primary HTS), 1678 (Summary of Project)]; type: functional
# [8] = target: Luciferin 4-monooxygenase (Photinus pyralis, UniProt P08659); experiment: firefly luciferase enzyme inhibitors, dose response, biochemical, luminescence (AID 1891)
# Cytochrome P450 1A2 = target: T4, Cytochrome P450 1A2 (Homo sapiens, UniProt P05177);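 also: PubChem cytochrome P450 panel assay, CYP1A2 panel member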
# T4 sequence (P05177 whole entry): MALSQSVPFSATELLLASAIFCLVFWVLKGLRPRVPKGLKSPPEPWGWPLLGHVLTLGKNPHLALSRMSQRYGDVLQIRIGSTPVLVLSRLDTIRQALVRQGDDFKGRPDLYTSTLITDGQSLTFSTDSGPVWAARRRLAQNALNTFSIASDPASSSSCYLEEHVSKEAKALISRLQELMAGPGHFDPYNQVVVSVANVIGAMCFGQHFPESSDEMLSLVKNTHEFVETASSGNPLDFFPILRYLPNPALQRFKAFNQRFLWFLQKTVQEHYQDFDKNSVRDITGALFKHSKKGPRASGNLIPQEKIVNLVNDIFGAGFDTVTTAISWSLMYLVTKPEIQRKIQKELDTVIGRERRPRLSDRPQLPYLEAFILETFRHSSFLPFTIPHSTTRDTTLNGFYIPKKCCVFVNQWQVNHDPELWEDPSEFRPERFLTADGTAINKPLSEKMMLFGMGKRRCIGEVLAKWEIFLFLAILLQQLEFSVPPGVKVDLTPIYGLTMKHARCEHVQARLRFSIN
# [9] = target: DNA (cytosine-5)-methyltransferase 1 (Homo sapiens, UniProt P26358); experiment: DNMT1 methyltransferase inhibitors, confirmation, biochemical, fluorescent molecular beacon (AID 602386); type: functional
# HeLa = experiment: HeLa cell cytotoxicity, dose response, cytotoxicity control, 24 h, cherry-picked samples (AID 504726); type: functional, cell-based; conditions: Homo sapiens;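 also: potency for cytotoxicity as loss of luminescence signal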
# Trypsin = Trypsin (Sus scrofa, UniProt P00761); experiment: porcine trypsin inhibitors, dose response, selectivity assay for Rce1 protease inhibitor project, biochemical, quenched peptide fluorescence, cherry-pick (AID 488789)
# [10] = target: Peroxisome proliferator-activated receptor gamma/Nuclear receptor coactivator 3 (Homo sapiens, UniProt P37231); type: functional;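 also: agonist potency for raising coactivator recruitment to the receptor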
# [11] = target: Peroxisome proliferator-activated receptor gamma/Nuclear receptor coactivator 2 (Homo sapiens, UniProt P37231); type: functional;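 also: agonist potency for raising coactivator recruitment to the receptor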
# [12] = target: Peroxisome proliferator-activated receptor gamma/Nuclear receptor coactivator 1 (Homo sapiens, UniProt P37231); type: functional;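 also: agonist potency as compounds enhance coactivator SRC-1 recruitment to PPARgamma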
# [13] = target: Melanin-concentrating hormone receptor 1 (Homo sapiens, UniProt Q99705); experiment: Late-stage fluorescence-based counterscreen for antagonists of the G-protein coupled receptor 7 (GPR7): cell-based dose response assay to identify antagonists of the melanin-concentrating hormone receptor 1 (MCHR1). [Related pubchem assays (depositor defined):AID1861, AID1880, AID1952, AID2148, AID2251, AID2257, AID485339]; type: functional;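 also: stimulated with 30 nM MCH peptide agonist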
# Sequence of Melanin-concentrating hormone receptor 1 (Q99705 whole entry): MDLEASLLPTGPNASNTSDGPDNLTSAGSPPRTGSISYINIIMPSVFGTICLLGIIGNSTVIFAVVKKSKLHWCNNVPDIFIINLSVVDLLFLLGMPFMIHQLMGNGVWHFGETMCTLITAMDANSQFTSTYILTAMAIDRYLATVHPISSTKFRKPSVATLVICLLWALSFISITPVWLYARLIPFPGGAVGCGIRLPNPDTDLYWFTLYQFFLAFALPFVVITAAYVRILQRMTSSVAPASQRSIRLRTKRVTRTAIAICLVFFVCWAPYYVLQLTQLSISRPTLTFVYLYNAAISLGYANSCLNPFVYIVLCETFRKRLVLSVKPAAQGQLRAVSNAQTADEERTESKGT
# Sequence of Eukaryotic translation initiation factor 4E (P63073 whole entry): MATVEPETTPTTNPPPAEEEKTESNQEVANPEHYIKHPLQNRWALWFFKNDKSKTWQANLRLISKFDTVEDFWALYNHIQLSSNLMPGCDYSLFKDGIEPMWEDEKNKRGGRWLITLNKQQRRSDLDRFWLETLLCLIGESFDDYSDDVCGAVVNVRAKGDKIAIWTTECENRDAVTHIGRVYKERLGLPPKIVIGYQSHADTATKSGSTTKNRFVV
# Sequence of Acyl-homoserine lactone acylase PvdQ (Q9I194 24-193 limits assumed): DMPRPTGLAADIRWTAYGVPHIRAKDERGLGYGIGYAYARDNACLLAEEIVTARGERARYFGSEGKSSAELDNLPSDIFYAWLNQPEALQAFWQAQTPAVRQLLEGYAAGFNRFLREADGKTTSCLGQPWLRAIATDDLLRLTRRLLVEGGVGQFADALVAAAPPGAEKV
# Sequence of Acyl-homoserine lactone acylase PvdQ (Q9I194 217-762 limits assumed): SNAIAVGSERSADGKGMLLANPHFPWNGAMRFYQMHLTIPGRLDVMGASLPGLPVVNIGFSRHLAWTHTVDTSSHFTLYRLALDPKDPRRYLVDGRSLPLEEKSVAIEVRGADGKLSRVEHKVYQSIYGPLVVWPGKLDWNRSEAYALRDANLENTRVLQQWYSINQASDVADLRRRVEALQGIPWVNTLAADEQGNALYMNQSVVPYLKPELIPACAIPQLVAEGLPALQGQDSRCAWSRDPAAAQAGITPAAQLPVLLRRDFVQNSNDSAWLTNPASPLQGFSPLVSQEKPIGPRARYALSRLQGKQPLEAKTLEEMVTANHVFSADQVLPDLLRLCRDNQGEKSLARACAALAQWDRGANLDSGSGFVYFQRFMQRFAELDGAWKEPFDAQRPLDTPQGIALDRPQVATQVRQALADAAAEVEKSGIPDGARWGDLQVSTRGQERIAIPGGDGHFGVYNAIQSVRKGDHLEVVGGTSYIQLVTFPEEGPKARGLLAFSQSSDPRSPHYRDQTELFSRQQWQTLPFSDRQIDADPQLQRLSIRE
# Sequence of DNA (cytosine-5)-methyltransferase 1 (P26358 whole entry): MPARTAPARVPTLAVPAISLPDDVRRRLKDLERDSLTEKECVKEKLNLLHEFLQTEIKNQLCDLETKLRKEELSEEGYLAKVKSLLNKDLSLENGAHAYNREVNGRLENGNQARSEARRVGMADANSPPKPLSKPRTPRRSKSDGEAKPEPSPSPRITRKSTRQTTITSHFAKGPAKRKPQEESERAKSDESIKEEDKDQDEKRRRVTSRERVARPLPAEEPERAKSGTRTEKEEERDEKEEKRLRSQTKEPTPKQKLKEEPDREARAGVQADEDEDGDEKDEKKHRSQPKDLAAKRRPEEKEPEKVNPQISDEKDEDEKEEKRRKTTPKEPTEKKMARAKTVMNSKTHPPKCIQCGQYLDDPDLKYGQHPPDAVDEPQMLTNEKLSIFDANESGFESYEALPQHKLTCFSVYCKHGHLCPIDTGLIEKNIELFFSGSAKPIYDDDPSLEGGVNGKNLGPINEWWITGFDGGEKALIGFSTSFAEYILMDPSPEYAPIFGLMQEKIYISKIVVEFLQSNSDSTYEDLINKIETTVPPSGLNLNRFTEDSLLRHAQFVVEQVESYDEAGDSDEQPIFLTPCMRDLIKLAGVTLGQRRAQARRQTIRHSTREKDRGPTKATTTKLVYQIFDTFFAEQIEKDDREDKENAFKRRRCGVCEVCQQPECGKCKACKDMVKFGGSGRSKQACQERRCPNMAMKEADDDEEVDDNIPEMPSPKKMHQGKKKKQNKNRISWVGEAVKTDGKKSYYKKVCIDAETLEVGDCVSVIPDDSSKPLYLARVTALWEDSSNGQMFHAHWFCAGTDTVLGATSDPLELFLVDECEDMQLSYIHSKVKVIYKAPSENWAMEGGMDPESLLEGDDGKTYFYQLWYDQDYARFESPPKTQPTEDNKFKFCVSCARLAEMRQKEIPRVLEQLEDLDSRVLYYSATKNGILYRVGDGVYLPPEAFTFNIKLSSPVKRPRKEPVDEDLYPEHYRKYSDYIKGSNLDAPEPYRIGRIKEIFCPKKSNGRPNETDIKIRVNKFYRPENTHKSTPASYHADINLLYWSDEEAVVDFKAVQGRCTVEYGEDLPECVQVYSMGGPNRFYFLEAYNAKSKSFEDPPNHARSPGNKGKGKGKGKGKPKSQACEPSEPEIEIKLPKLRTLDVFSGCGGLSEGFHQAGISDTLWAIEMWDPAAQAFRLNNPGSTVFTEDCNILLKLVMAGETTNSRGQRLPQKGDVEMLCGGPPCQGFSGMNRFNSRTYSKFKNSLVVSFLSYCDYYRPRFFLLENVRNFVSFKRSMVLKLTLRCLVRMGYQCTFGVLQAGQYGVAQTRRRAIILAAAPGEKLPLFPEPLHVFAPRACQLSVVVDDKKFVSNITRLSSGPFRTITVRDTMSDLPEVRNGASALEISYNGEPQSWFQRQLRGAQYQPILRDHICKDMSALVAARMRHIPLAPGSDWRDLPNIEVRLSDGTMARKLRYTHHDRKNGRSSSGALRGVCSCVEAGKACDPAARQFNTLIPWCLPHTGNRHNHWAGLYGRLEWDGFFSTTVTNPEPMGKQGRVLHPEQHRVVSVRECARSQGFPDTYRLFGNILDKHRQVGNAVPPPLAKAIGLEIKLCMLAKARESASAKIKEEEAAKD
# Sequence of Cytochrome P450 2C9 (P11712 whole entry): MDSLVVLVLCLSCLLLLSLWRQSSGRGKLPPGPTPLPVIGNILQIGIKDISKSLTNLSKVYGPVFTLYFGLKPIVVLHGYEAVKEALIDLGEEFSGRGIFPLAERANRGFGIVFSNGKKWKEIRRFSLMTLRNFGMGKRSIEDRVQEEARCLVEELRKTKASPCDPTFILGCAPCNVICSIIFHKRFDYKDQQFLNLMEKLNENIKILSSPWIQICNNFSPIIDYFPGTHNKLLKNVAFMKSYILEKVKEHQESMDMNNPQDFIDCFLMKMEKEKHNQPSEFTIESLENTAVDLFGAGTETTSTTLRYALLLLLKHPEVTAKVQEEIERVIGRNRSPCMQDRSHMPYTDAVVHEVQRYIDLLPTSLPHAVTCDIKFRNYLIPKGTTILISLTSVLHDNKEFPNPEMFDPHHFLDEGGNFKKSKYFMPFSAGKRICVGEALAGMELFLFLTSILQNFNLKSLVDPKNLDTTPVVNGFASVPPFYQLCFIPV
# Sequence of Nucleotide-binding oligomerization domain-containing protein 2 (Q9HC29 whole entry, the tested form may be a part): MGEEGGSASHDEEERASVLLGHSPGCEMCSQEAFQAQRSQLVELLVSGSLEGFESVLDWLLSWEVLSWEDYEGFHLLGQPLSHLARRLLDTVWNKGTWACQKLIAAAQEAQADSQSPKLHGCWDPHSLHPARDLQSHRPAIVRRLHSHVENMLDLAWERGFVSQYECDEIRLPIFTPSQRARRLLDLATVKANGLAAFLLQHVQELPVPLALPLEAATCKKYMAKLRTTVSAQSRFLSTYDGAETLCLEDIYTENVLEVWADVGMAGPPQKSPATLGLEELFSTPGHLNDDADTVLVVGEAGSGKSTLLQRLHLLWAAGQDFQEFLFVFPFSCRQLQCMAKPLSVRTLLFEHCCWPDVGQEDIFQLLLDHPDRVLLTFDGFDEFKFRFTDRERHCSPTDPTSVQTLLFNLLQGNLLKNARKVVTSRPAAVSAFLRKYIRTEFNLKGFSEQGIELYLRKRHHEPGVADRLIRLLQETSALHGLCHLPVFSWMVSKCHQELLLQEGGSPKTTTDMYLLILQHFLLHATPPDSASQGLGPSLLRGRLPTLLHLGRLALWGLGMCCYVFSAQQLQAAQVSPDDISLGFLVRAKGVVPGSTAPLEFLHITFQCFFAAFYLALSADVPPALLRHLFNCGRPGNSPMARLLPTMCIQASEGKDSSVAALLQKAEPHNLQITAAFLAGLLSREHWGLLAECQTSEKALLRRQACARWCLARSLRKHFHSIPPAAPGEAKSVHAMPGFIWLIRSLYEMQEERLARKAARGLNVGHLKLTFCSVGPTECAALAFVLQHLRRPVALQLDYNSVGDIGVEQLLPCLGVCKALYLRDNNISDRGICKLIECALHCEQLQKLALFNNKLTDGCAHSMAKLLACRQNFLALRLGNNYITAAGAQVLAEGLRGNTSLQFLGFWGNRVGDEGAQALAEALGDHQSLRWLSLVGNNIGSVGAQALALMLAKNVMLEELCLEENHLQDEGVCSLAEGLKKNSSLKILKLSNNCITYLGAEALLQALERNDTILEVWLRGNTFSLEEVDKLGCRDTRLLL
# Sequence of Trypsin (P00761 whole entry): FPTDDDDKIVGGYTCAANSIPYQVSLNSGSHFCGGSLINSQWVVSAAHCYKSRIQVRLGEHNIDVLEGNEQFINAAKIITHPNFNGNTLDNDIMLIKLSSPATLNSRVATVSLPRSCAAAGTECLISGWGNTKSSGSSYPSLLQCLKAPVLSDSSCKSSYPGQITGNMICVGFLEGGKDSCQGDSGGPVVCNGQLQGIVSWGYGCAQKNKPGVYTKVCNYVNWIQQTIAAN
# Sequence of Tumor necrosis factor (P01375 whole entry, the tested form may be a part): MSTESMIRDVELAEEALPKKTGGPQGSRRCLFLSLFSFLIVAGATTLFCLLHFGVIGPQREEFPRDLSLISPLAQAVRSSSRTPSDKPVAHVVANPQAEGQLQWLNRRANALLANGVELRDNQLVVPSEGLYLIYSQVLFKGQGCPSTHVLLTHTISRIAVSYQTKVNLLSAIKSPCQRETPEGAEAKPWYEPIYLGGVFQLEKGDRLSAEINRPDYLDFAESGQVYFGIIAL
compound,measurement,setting,value
COCCn1c(SCC(=O)Nc2ncc(Cl)c(C)c2Cl)nc2ccccc21,IC50,Bcl-2-like protein 10,90.6 µM (inactive)
CCC(C)(C)NC(=O)c1cc([N+](=O)[O-])ccc1N1CCCCC1,AC50,[1],13.7 µM (active)
Clc1ccc(CN2C3=NCCN3c3ccccc32)cc1,EC50,[2],> 50 µM (active)
same,EC50,[3],1.5 µM (active)
CCCCCC(=O)c1cc(CC(C(=O)OC)C(=O)OC)cc2cc(OC)c(OC)cc12,AC50,Cytochrome P450 2C9,3.16 µM (inconclusive)
same,AC50,Cytochrome P450 3A4,3.98 µM (inconclusive)
CCOC(=O)c1c(NC(=O)c2cccs2)sc2c1CC(C)(C)OC2,IC50,HEK293,> 20 µM (inactive)
same,IC50,[4],> 20 µM (inactive)
same,IC50,Tumor necrosis factor,> 20 µM (inactive)
same,IC50,[5],> 20 µM (inactive)
COc1ccccc1Nc1cc(C(=O)NCc2cccnc2)c2ccccc2n1,EC50,[2],> 50 µM (active)
COc1ccc(-c2nc(-c3ccc(Br)cc3)no2)c(OC)c1,IC50,[6],> 64 µM (inactive)
same,EC50,[7],> 112 µM (not active)
same,EC50,[8],> 112 µM (not active)
O=C(Oc1c(Br)cc(C(=S)N2CCOCC2)cc1Br)c1ccc(Cl)cc1,IC50,[6],> 64 µM (inactive)
same,AC50,Cytochrome P450 1A2,17.8 µM (inconclusive)
Cc1cccc(OCC(=O)Nc2ccc(N3CCCC3)cc2)c1C,IC50,Bcl-2-like protein 10,96.2 µM (inactive)
same,IC50,[9],> 99 µM (inactive)
Cc1cccc(N(Cc2ccccc2)C(=O)C2CCN(C(=O)c3ccccc3C)CC2)c1,AC50,HeLa,135 µM (active)
N#Cc1cn(Cc2ccccc2)c2ccccc12,AC50,[1],45 µM (active)
Cc1ccc(-c2cc(-c3ccccc3)c(C#N)c(Br)n2)cc1,AC50,Trypsin,11.9 µM (active)
same,EC50,[10],58.2 µM (not active)
same,EC50,[11],34.1 µM (not active)
same,EC50,[12],58.7 µM (not active)
COc1ccc(Oc2c(Cl)cnn(-c3ccc4c(c3)CCCC4)c2=O)cc1,IC50,[13],2.1 µM (active)
CC(C)c1ccc(-n2ncc(Cl)c(NCc3ccccc3)c2=O)cc1,IC50,[13],6.9 µM (active)
NC(=S)N/N=C/c1ccc(-c2ccc([N+](=O)[O-])cc2)o1,AC50,HeLa,84.6 µM (active)
